Results taken from PubChem BioAssay AID602464 (Sanford-Burnham Center for Chemical Genomics, 2012).
The source made the active and inactive calls. Rule as the data show it: active = IC50 below about 20 µM; inactive = the rest.

Each molecule was assayed on Gli-responsive luciferase reporter cells, SUFU pathway antagonism (assay: Gli-SUFU pathway antagonists, dose response, cell-based, luciferase luminescence, uHTS hits (AID 602464)).

Structure (SMILES) | IC50
CCn1cc[n+](C)c1P(c1ccccc1)c1ccccc1 | 8.57 µM
COc1ccc(-c2c(C#N)c(N)nc3c2CCc2ccccc2-3)cc1OC | 6.7 µM
COc1ccc(NS(=O)(=O)c2ccc(NC(C)=O)cc2)cc1OC | 7.92 µM
C=CCNc1nc2c(c(=O)n(C)c(=O)n2C)n1Cc1ccc(F)cc1 | 6.15 µM
CCC(C)[C@H]1CN=C(N)N1CCc1cccc2ccccc12 (stereo partly drawn) | 6.63 µM
Cc1cc(NC(=O)CSc2nc3c([nH]c4ccccc43)c(=O)n2-c2ccccc2F)no1 | 13.8 µM
CC(C)(C)c1ccc(C(=O)NC(=S)Nc2ccc(N3CCOCC3)cc2)cc1 | 9.13 µM
Cc1nnsc1C(=O)Nc1ccc(S(=O)(=O)N2CCC(C)CC2)cc1 | > 20 µM (inactive)
COc1cc(NS(=O)(=O)c2ccc(C)cc2C)cc(OC)c1OC | 6.71 µM
FC(F)Oc1ccc(-n2cc(-c3ccccc3)[n+]3c2CCCCC3)cc1 | 8.14 µM
CCCCCn1c(=N)n(CC(O)COc2ccccc2OC)c2ccccc21 (stereo not drawn) | 8.43 µM
O=C(C[n+]1cc(-c2ccccc2)n2c1CCCCC2)c1ccc(Cl)cc1 | > 20 µM (inactive)

Second part, the molecule after the results:

IC50 | Structure (SMILES)
5.45 µM | O=C(Nc1cccc(C(F)(F)F)c1)C1CCN(S(=O)(=O)c2ccc(N3CCCC3=O)cc2)CC1
3.85 µM | O=S(=O)(c1ccc2c(c1)nc(COc1ccc(Cl)cc1)n2CC1CCCO1)N1CCOCC1 (stereo not drawn)
3.49 µM | CCOc1ccc(-n2c(-c3ccc(Cl)cc3)c[n+]3c2SCC3)cc1
4.37 µM | CC[N+](CC)(CC#Cc1ccccc1)CC#Cc1ccccc1
6.13 µM | CCCCN(C(C)=O)c1ccc2c(c1)C1CC2CCN1C(=O)OCc1ccccc1 (stereo not drawn)
2.29 µM | COc1ccc(-n2cc(-c3ccc(OC(F)F)cc3)[n+]3c2CCCCC3)cc1
0.294 µM | O=C(Nc1cc(N2CCCCC2)ncn1)c1ccccc1
5.18 µM | CC(C)CCOC(=O)C[N+](C)(C)CCOC1CC2CCC1(C)C2(C)C (stereo not drawn)
4.71 µM | CC1Sc2n(c3ccccc3[n+]2C)N=C1c1ccccc1 (stereo not drawn)
2.93 µM | CC(C)(C)OC(=O)NCCCCCc1cn(CC(=O)NCCCCCCCCCCC(=O)N2CCN(C(=O)OC(C)(C)C)CC2)nn1
4.63 µM | CC(C)=CCC/C(C)=C/CNC(=O)C[C@H]1C[C@H](C(=O)N2CCOCC2)[C@@]2(C)c3[nH]c4cc(CCC(=O)N(C)C)ccc4c3CCN2C1=O
